How the values were obtained:
[1] = effect of food on oral bioavailability in rats; type: in vivo, rat
Experimental: The effect of food on oral bioavailability was determined.

BCRP = target: T1, BCRP (Homo sapiens, UniProt Q9UNQ0); assay: transporter inhibition, MDCKII-BCRP cells, prazosin transport; type: in vitro ADME
T1 construct: expressed in transfected cells
T1 sequence (Q9UNQ0 1-655): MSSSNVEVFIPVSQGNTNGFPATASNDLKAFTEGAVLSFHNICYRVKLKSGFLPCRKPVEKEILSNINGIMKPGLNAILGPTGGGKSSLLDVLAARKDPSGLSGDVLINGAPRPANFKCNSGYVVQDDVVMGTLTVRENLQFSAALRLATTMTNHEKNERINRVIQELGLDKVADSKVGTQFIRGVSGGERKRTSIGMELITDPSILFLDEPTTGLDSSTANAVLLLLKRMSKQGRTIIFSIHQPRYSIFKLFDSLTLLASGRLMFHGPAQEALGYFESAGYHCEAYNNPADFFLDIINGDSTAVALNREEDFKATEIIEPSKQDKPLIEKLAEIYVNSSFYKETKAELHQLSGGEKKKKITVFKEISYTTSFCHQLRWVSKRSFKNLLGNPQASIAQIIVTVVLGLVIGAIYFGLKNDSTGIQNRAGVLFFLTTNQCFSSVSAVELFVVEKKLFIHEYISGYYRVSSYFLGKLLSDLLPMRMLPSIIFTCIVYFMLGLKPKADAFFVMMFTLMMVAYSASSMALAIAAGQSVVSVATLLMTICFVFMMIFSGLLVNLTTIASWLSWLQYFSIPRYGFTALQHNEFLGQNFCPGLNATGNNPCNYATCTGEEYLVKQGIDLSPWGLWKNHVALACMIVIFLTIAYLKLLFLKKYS

[2] = tested on: incision-induced hyperalgesia; assay: mouse incisional model (mimicking the Brennan protocol); type: in vivo; conditions: 10 mg/kg IP QD, Days 1 and 3 after incision
Experimental: In a mouse incisional model (mimicking the Brennan protocol), animals were baselined for mechanical thresholds prior to incision and then given a daily dose of Compound 1 (10 mg/kg IP QD) or vehicle for 7 days.

[3] = dog single oral dose MTD study; type: in vivo; conditions: for Average Compound 1 Concentration in Dog Plasma: N = 2
Experimental: Using a pyramiding dose schedule, dose levels of 250, 350 and 500 mg/kg were administered to 2 dogs/sex (after a washout period of at least three days, the same animals were dosed with the next dose level). The dose volume was 10 mL/kg body weight. The vehicle was 0.5% aqueous HPMC.

[4] = rat brain distribution study; type: in vivo
From the text: A rat brain distribution study performed in order to determine standard pharmacokinetic parameters and to assess the brain penetration properties of Compound 1 administered orally and intravenously. […] The compound distributed readily in tissues with a steady-state volume of distribution of 1.7 L/kg.

stability in plasma [5] = type: in vitro ADME; conditions: rat plasma
[6] = stability in plasma from a variety of species; type: in vitro ADME
peroxynitrite (PN) = assay: chemical-based assays of peroxynitrite (PN) oxidation; type: biochemical; conditions: chemical-based assay
allodynia = assay: methylglyoxal-induced diabetic neuropathy model; type: in vivo; conditions: rat
stability in plasma [7] = type: in vitro ADME; conditions: dog plasma
OATP1B1 = target: T2, OATP1B1 (Homo sapiens, UniProt Q9Y6L6); assay: transporter inhibition, HEK293 cells, probe accumulation; type: in vitro ADME
T2 construct: expressed in transfected cells; host or cells: HEK293 cells
T2 sequence (Q9Y6L6 1-691): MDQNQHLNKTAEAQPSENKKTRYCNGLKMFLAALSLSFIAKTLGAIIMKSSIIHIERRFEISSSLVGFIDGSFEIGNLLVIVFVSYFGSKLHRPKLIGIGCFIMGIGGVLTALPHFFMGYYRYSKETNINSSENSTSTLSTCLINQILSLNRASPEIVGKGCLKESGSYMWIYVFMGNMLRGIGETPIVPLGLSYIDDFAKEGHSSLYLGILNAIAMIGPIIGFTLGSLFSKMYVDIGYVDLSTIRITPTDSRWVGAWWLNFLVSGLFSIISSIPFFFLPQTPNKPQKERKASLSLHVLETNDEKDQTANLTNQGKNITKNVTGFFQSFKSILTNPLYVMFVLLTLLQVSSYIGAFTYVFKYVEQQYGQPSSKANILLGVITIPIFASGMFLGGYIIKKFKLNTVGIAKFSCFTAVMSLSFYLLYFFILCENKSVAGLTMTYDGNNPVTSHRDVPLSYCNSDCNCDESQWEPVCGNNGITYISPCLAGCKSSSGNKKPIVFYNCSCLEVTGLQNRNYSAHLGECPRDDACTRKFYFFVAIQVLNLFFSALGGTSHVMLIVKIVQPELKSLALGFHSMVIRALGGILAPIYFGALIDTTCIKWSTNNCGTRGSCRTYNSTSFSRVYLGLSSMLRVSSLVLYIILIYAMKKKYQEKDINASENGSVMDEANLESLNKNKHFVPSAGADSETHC

SMILES: CC1(C)SC(Nc2ccccc2O)=N[C@@H]1C(=O)O.Cl [Compound 1, (R)-2-(2-hydroxyphenylamino)-5,5-dimethyl-4,5-dihydrothiazole-4-carboxylic acid mono-hydrochloride]
- peak plasma concentrations, fasted compared to fed ([1]; 10 mg/kg oral): significantly increased peak plasma concentrations
- differences in pharmacokinetic properties, fed vs fasted ([1]; 100 mg/kg oral): No statistically significant differences
- inhibition (BCRP): modestly inhibits
- hyperalgesia (mechanical thresholds) [2]: not hyperalgesic
- Average Compound 1 Concentration in Dog Plasma ([3]; 250 mg/kg PO (Dose 1; Day 1), 0.5 h, F): 28 µg/mL
- Average Compound 1 Concentration in Dog Plasma ([3]; 250 mg/kg PO (Dose 1; Day 1), 0.5 h, M): 71 µg/mL
- Average Compound 1 Concentration in Dog Plasma ([3]; 250 mg/kg PO (Dose 1; Day 1), 1 h, F): 54 µg/mL
- Average Compound 1 Concentration in Dog Plasma ([3]; 250 mg/kg PO (Dose 1; Day 1), 1 h, M): 110 µg/mL
- Average Compound 1 Concentration in Dog Plasma ([3]; 250 mg/kg PO (Dose 1; Day 1), 2 h, F): 46 µg/mL
- Average Compound 1 Concentration in Dog Plasma ([3]; 250 mg/kg PO (Dose 1; Day 1), 2 h, M): 91 µg/mL
- Average Compound 1 Concentration in Dog Plasma ([3]; 350 mg/kg PO (Dose 3; Day 9), 0.5 h, F): 67 µg/mL
- Average Compound 1 Concentration in Dog Plasma ([3]; 350 mg/kg PO (Dose 3; Day 9), 0.5 h, M): 134 µg/mL
- Average Compound 1 Concentration in Dog Plasma ([3]; 350 mg/kg PO (Dose 3; Day 9), 1 h, F): 154 µg/mL
- Average Compound 1 Concentration in Dog Plasma ([3]; 350 mg/kg PO (Dose 3; Day 9), 1 h, M): 220 µg/mL
- Average Compound 1 Concentration in Dog Plasma ([3]; 350 mg/kg PO (Dose 3; Day 9), 2 h, F): 119 µg/mL
- Average Compound 1 Concentration in Dog Plasma ([3]; 350 mg/kg PO (Dose 3; Day 9), 2 h, M): 153 µg/mL
- Average Compound 1 Concentration in Dog Plasma ([3]; 500 mg/kg PO (Dose 2; Day 4), 0.5 h, F): 87 µg/mL
- Average Compound 1 Concentration in Dog Plasma ([3]; 500 mg/kg PO (Dose 2; Day 4), 0.5 h, M): 111 µg/mL
- Average Compound 1 Concentration in Dog Plasma ([3]; 500 mg/kg PO (Dose 2; Day 4), 1 h, F): 136 µg/mL
- Average Compound 1 Concentration in Dog Plasma ([3]; 500 mg/kg PO (Dose 2; Day 4), 1 h, M): 191 µg/mL
- Average Compound 1 Concentration in Dog Plasma ([3]; 500 mg/kg PO (Dose 2; Day 4), 2 h, F): 124 µg/mL
- Average Compound 1 Concentration in Dog Plasma ([3]; 500 mg/kg PO (Dose 2; Day 4), 2 h, M): 193 µg/mL
- tolerability ([3]; dogs, single oral (gavage) dose of 500 mg/kg, emesis in three of the four dosed animals): not tolerated
- peak plasma concentration ([4]; rat, in vivo, po, 30 mg/kg): 9 µg/mL
- time to peak plasma concentration ([4]; rat, in vivo, po, 30 mg/kg): ≤ 1 h
- steady-state volume of distribution ([4]; rats): 1.7 L/kg
- oral bioavailability ([4]; rats, 30 mg/kg oral dose): 111%
- terminal half-life ([4]; rats, 30 mg/kg oral dose): 1.6 h
- brain-to-plasma concentration ratio ([4]; rats, 1 h after IV administration): 0.02
- stability in plasma (stability in plasma [5]): stable
- stability in plasma [6]: stable
- PN-mediated oxidation of small-molecule organic substrates such as luminol (peroxynitrite (PN)): inhibits PN-mediated oxidation
- effect on allodynia, methylglyoxal-induced diabetic neuropathy (allodynia): alleviates allodynia
- stability in plasma (stability in plasma [7]): stable
- inhibition (OATP1B1): does not inhibit
